Assay results reported in patent US8648116B2, “Derivatives of N-(arylamino) sulfonamides including polymorphs as inhibitors of MEK as well as compositions, methods of use and methods for preparing the same” (Ardea Biosciences, Inc., priority 2005, dated 2014).
Where two headings read alike, the source gives them in different places. Marks after values point to notes of the source that are not given here.

Tests used:
MDA pERK = MDA pERK ELISA; type: cell-based
[1] = test system: Complete Freund's Adjuvant induced arthritis; assay: Rat adjuvant arthritis inflammation assay; type: in vivo, rats; conditions: 10 mg/kg subcutaneous on days 1 and 4
Method: In the rat adjuvant induced arthritis model, Complete Freund's Adjuvant (CFA) is injected into the right hind paw of rats to induce pathologies similar to rheumatoid arthritis in humans. Compound A was administered orally for 5 consecutive days at 2, 6, and 20 mg/kg. Dexamethasone at 5 m g/kg was also administered orally for 5 days. Enbrel at 10 mg/kg was administered by subcutaneous injection on days 1 and 4. CFA was injected into the right hind paw one hour after the first dose on day 1. […] Polyarthritis was scored as the presence of swelling in front paws, tail, nose or ear.

A375 cells = assay: Evaluation of cell cycle arrest (propidium iodide, flow cytometry); type: cell-based, human; conditions: 24 hr
Method: A375 cells were plated in 96-well microplates at 10,000 cells/200 μl/well. […] After another 24 hr, cells were trypsinized, fixed in 200 μl Prefer (Anatech, Battle Creek, Mich.), and stored at 4° C. overnight. Cells were then rinsed in PBS, permeabilized and stained in 0.1% Triton X-100, 200 μg/ml DNase-free RNase, and […] propidium iodide (Molecular Probes, Sunnyvale, Calif.), and analyzed on the Guava PCA-96 (Guava Technologies, Foster City, Calif.). Data were analyzed using ModFit LT (version 3.0, Verity, Topsham, Me.).

[2] = test system: COLO 205 human colon carcinoma xenografts; assay: Activity against subcutaneous COLO 205 xenografts (Example 118)
Method: Dosing solutions of Compound A were prepared fresh daily by dissolving the required amount of compound in 100% Cremophor EL, and then diluting ten-fold with normal saline. Final dosing solution concentrations were 2.5, 5, 10, or 20 mg/mL, in order to provide respective doses of 25, 50, 100 or 200 mg/kg in a dosing volume of 10 mL/kg. Paclitaxel (Natural Pharmaceuticals, Inc.) was prepared fresh on each day of dosing in a vehicle consisting of 5% ethanol and 5% Cremophor EL in 90% D5W (5% EC vehicle).
Group 1 received the formulation vehicle (10% Cremophor EL in saline), and served as the tumor growth control group. Group 2 received the reference drug paclitaxel administered on its optimal schedule in nude mice (30 mg/kg i.v. qod×5). […] All doses were scaled to the weight of the animal (0.2 mL per 20 grams body weight).
Tumors were measured twice each week using calipers. […] Therefore endpoint tumor size of 800 mm^3 was used for analysis of tumor growth delay (TGD).
[formula] where b is the intercept and m is the slope of the line obtained by linear regression of a log-transformed tumor growth data set.

Colo205 tumor cells = assay: ED50 in Colo205 xenografts (Example 94D); type: in vivo, nu/nu mice; conditions: Paclitaxel 30 mg/kg IV QODx5, Colo205 xenografts
Description: Male nu/nu mice were implanted with Colo205 tumor cells. After 10 days animals were randomized by tumor size (range 126-256 mm^3) and treated with paclitaxel (IV, QODx5), vehicle or Compound A (PO, QDx14).

[3] = test system: human A375 melanoma xenografts
[4] = Dynamic vapor sorption/desorption (DVS); type: physicochemical; conditions: Form A; 5% to 95% relative humidity
Method: Moisture sorption/desorption data were collected on a VTI SGA-100 Vapor Sorption Analyzer. Sorption and desorption data were collected over a range of 5% to 95% relative humidity (RH) at 10% RH intervals under a nitrogen purge. Samples were not dried prior to analysis. Equilibrium criteria used for analysis were less than 0.0100% weight change in 5 minutes, with a maximum equilibration time of 3 hours if the weight criterion was not met. Data were not corrected for the initial moisture content of the samples. Sodium chloride and polyvinypyrrolidine were used as calibration standards.

[5] = Group 2, paclitaxel 30 mg/kg iv qod × 14 per the 39th table (qod×5), n=9
[6] = Group 2: Paclitaxel 30 mg/kg iv qod×5
[7] = Group 2: Paclitaxel 30 mg/kg iv qod×5, n=9

**Q.** For O=S(=O)(Nc1ccc(F)c(F)c1Nc1ccc(-c2ccccc2)cc1F)C1CC1 [Example 0497692], which EC50 (MDA pERK) is on record?
**A.** > 200 nM

**Q.** With enbrel as the compound, how does the “animals without swelling in the tail (polyarthritis scoring)” value [1] read?
**A.** 3 of 6

**Q.** And the “protection from front paw swelling (polyarthritis scoring)” value [1]?
**A.** no animals were protected

**Q.** Which “Phase % G1” value (A375 cells; 37 nM) does the source give for COc1cc(F)c(F)c(Nc2ccc(I)cc2F)c1NS(=O)(=O)C1(C[C@H](O)CO)CC1 [listing 1 of 2 here] here?
**A.** 74.3%

**Q.** And the “Phase % G2” value (A375 cells; 37 nM)?
**A.** 7.0%

**Q.** What about the “Phase % S” value (A375 cells; 37 nM) of the same compound?
**A.** 18.7%

**Q.** What about the “Phase % G1” value (A375 cells; 111 nM) of the same compound?
**A.** 84.7%

**Q.** What about the “Phase % G2” value (A375 cells; 111 nM) of the same compound?
**A.** 3.5%

**Q.** And the “Phase % S” value (A375 cells; 111 nM)?
**A.** 11.8%

**Q.** With Cn1cc(S(=O)(=O)Nc2ccc(F)c(F)c2Nc2ccc(I)cc2F)c(C(F)(F)F)n1 [Example 0621026] as the compound, how does the EC50 (MDA pERK) read?
**A.** 100 to 200 nM

**Q.** For O=S(=O)(Nc1ccc(F)c(F)c1Nc1ccc(I)cc1F)c1ccsc1 [Example 0620927], which EC50 (MDA pERK) is on record?
**A.** 15 to 100 nM

**Q.** Which EC50 (MDA pERK) does the source give for CNCCS(=O)(=O)Nc1ccc(F)c(F)c1Nc1ccc(I)cc1F [Example 0621002] here?
**A.** 15 to 100 nM

**Q.** With O=S(=O)(Nc1ccc(F)c(F)c1Nc1ccc(-c2cc[nH]n2)cc1F)C1CC1 [Example 0497654] as the compound, how does the EC50 (MDA pERK) read?
**A.** 100 to 200 nM

**Q.** With CC(=O)O[C@H]1C(=O)[C@@]2(C)[C@H]([C@H](OC(=O)c3ccccc3)[C@]3(O)C[C@H](OC(=O)[C@H](O)[C@@H](NC(=O)c4ccccc4)c4ccccc4)C(C)=C1C3(C)C)[C@]1(OC(C)=O)CO[C@@H]1C[C@@H]2O [paclitaxel, reference compound] as the compound, how does the PR responses ([2]; Group 2, 30 mg/kg i.v. qod×5) read?
**A.** Five

**Q.** And the MTV ([2]; Group 2, 30 mg/kg i.v. qod×5, Day 74)?
**A.** 143 mm^3

**Q.** What about the “% TGD” value [2, 5] of the same compound?
**A.** 46%

**Q.** What about the “MTV (n) Day 74” value [2, 5] of the same compound?
**A.** 0 (3)

**Q.** And the “Median TTE” value [2, 5]?
**A.** 60.0 days

**Q.** What about the “No of CR” value [2, 5] of the same compound?
**A.** 0

**Q.** What about the “No of NTR (non-treatment-related deaths)” value [2, 5] of the same compound?
**A.** 2

**Q.** And the “No of PR” value [2, 5]?
**A.** 1

**Q.** What about the “No of TFS” value [2, 5] of the same compound?
**A.** 0

**Q.** And the “No of TR (treatment-related deaths)” value [2, 5]?
**A.** 2

**Q.** What about the “SS (statistical significance, logrank vs Group 1)” value [2, 5] of the same compound?
**A.** ns

**Q.** And the “T − C” value [2, 5]?
**A.** 19.0 days

**Q.** And the “Day 15 Tumor Volume” value (Colo205 tumor cells)?
**A.** 113 ± 9.6 mm^3

**Q.** What about the “% TGI” value (Colo205 tumor cells; Day 15) of the same compound?
**A.** 104* %

**Q.** What about the “Median TTE” value ([3]; Group 2, 30 mg/kg iv qod×5) of the same compound?
**A.** 28.8 days

**Q.** And the TGD ([3]; Group 2, 30 mg/kg iv qod×5)?
**A.** 26%

**Q.** What about the tumor regressions ([3]; Group 2, 30 mg/kg iv qod×5) of the same compound?
**A.** No tumor regressions

**Q.** And the “% TGD” value [3, 6]?
**A.** 26%

**Q.** What about the “Median TTE” value [3, 6] of the same compound?
**A.** 28.8 days

**Q.** What about the “T − C” value [3, 6] of the same compound?
**A.** 6.0 days

**Q.** And the “Regressions CR” value [3, 7]?
**A.** 0

**Q.** What about the “Regressions PR” value [3, 7] of the same compound?
**A.** 0

**Q.** And the “Regressions TFS” value [3, 7]?
**A.** 0

**Q.** With Cn1cc(-c2ccc(Nc3c(NS(=O)(=O)C4CC4)ccc(F)c3F)c(F)c2)cn1 [Example 0497620] as the compound, how does the EC50 (MDA pERK) read?
**A.** > 200 nM

**Q.** With COC(=O)c1ccc(S(=O)(=O)Nc2ccc(F)c(F)c2Nc2ccc(I)cc2F)n1C [Example 0561608] as the compound, how does the EC50 (MDA pERK) read?
**A.** 15 to 100 nM

**Q.** Which EC50 (MDA pERK) does the source give for O=S(=O)(Nc1ccc(F)c(F)c1Nc1ccc(-c2cccnc2)cc1F)C1CC1 [Example 0497689] here?
**A.** > 200 nM

**Q.** With CN(C)CCNCCS(=O)(=O)Nc1ccc(F)c(F)c1Nc1ccc(I)cc1F [Example 0621016] as the compound, how does the EC50 (MDA pERK) read?
**A.** 15 to 100 nM

**Q.** For O=S(=O)(Nc1ccc(F)c(F)c1Nc1ccc(-c2cn[nH]c2)cc1F)C1CC1 [Example 0497618], which EC50 (MDA pERK) is on record?
**A.** > 200 nM

**Q.** With COc1cc(F)c(F)c(Nc2ccc(I)cc2F)c1NS(=O)(=O)C1(C[C@H](O)CO)CC1 [listing 2 of 2 here] as the compound, how does the “weight change in DVS” value [4] read?
**A.** negligible weight change

**Q.** With O=S(=O)(Nc1ccc(F)c(F)c1Nc1ccc(I)cc1F)c1ccc(-c2nsc(Cl)n2)s1 [Example 0530701] as the compound, how does the EC50 (MDA pERK) read?
**A.** 100 to 200 nM

**Q.** Which EC50 (MDA pERK) does the source give for O=S(=O)(Nc1ccc(F)c(F)c1Nc1ccc(I)cc1F)C1CCNCC1 [Example 0561599] here?
**A.** 15 to 100 nM
